These results are taken from patent publication EP1321493A1, “Method for enhancing the solubility of a colorant” (DSM N.V., priority 2001, dated 2003).

For series [1] the following is noted: according to The Sigma-Aldrich Handbook of Stains, Dyes and Indicators; cited from earlier work.
Series [2] can be described thus: Solubility / concentration of colorant in toluene. The conditions noted are these: pure colorant. It is filed as physicochemical.

`CCN(CC)c1ccc(C(=C2C=CC(=[N+](CC)CC)C=C2)c2ccc(S(=O)(=O)[O-])cc2S(=O)(=O)[O-])cc1.[Na+]` [Acid Blue 1]: the “maximum solubility of the pure dye in water” value (“maximum solubility” below) in series [1] is listed as 3,0%.

`O=C1/C(=C2\Nc3ccc(S(=O)(=O)[O-])cc3C2=O)Nc2ccc(S(=O)(=O)[O-])cc21.[Na+].[Na+]` [Acid Blue 74]: the “maximum solubility” value in series [1] is 0.3%.

For the compound `Cl.Cl.Nc1ccc(N=Nc2cccc(N=Nc3ccc(N)cc3N)c2)c(N)c1` [Basic Brown 1], in series [2], the “solubility in toluene (in words)” value is recorded as “insoluble”.

In the case of `CC1(C)Nc2cccc3c(N=Nc4ccc(N=Nc5ccccc5)c5ccccc45)ccc(c23)N1` [Solvent Black 3], the “maximum solubility” value in series [1] was 0.01%.
